From patent US20240166603A1, “Method of Treating Cancer With Atpenin A5 Derviatives” (Texas Tech University System, priority 2018, published 2024)
Converted amounts (≈) assume the structure as drawn. Like-named read-outs stand apart in the source and are kept apart here. Marks after values point to notes of the source that are not given here.

How the values were obtained:
[1] = target: T1, mitochondrial complex II (CII) (Rattus norvegicus, UniProt P21913+Q641Z9+Q6PCT8); test: Complex II inhibition assay, isolated rat heart mitochondria; details: for CII inhibition activity: 100 nM where stated; for LLE (Ligand-Lipophilicity Efficiency): LLE = pIC50-ClogP; for CII IC50 expressed: conversion of the nM value
[2] = system: PC3 prostate cancer cells under hypoxia; test: Cell death under hypoxia, microfluidic chip, Annexin V and Sytox Green; details: for cell death: 10 μM, hypoxia
CII = details: cited from earlier work
[3] = target: Complex I (NADH ubiquinone-oxidoreductase) (Mus musculus, UniProt P03888+Q91WD5+Q9DC70); test: Complex I inhibition assay, mouse cardiac mitochondria; details: for Selectivity Ratio (CII:CI): Table 3
bovine CII = bovine CII (Bos taurus, UniProt P35720+Q3T189+Q95123); details: literature [27]; cited from earlier work
[4] = system: WPMY-1 prostate stromal cells; test: Cytotoxicity, WPMY-1 prostate stromal cells; assay type: cell-based; details: Homo sapiens
3T3 cells = test: Cytotoxicity, 3T3 mouse embryonic fibroblast cells; assay type: cell-based; details: NIH3T3
22Rv1 cells = test: Metabolic parameters, Seahorse XF Extracellular Flux Analyzer; assay type: cell-based, human; details: 48 hour incubation
Experimental: Next, the inventors determined the effect of complex II inhibition by the developed inhibitors on mitochondrial metabolic processes. The effect of 16c on electron transport parameters of 22Rv1 cells after 48 hour incubation was studied using a Seahorse XF Extracellular Flux Analyzer.
Assessment of Metabolic Parameters. Changes in oxygen consumption rate were measured using a XF24 Extracellular Flux Analyzer (Seahorse Bioscience, Billerica, MA). 22Rv1 cells were plated in XF24-well plates (40,000 cells/well) and allowed to adapt overnight. Treatments were performed with 16c at concentrations of 1, 10, 20, 30, 50 and 100 μg/mL and incubated for 48 hours. Mito Stress test was performed using oligomycin (10 μM), FCCP (5 μM) and Rotenone/Antimycin A (5 μM) based on the manufacturer's recommended protocol.

LNCaP cells = test: Potentiation of Enzalutamide in LNCaP cells (FIG. 9); assay type: cell-based
in vivo = details: 1 mg/kg
[5] = target: T1, mitochondrial complex II (CII)
[6] = system: PC3 prostate cancer cells; test: Cytotoxicity MTS assay, PC3; details: Homo sapiens, 48 h, read-out: PC3 IC50
[7] = system: 22Rv1 prostate cancer cells; test: Cytotoxicity MTS assay, 22Rv1; details: for IC50: Homo sapiens, 22Rv1, 48 h, read-out: 22Rv1 IC50; for 22Rv1 IC50: MTS, 48 hours unless otherwise noted; for increase in efficacy relative to Enzalutamide, inhibition of cancer growth in vitro: cell line not given
[8] = system: DU-145 prostate cancer cells; test: Cytotoxicity MTS assay, DU-145; details: for IC50: Homo sapiens, DU-145, 48 h, read-out: DU-145 IC50
HEK293 cells = test: Cytotoxicity MTS assay, HEK293; details: for selectivity for prostate cancer cells over HEK293: 16c: DU-145 and 22Rv1, 16k: 22Rv1; for IC50: Homo sapiens, HEK293, 48 h, read-out: HEK293 IC50
[9] = Table 5, SDH1 and SDH2, percent relative to control
[10] = read-out: CII IC50, rat heart CII
[11] = read-out: CII IC50, rat heart mitochondria, mean value of four experiments

T1 sequence (P21913 31-282): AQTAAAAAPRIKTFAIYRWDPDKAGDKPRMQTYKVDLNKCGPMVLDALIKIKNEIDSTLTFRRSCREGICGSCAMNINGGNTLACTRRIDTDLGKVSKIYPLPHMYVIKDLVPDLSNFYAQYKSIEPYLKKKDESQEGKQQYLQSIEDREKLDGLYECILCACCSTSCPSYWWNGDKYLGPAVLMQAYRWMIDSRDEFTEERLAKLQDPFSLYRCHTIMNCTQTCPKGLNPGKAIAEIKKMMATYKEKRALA
T1 sequence (Q641Z9 30-169 limits assumed): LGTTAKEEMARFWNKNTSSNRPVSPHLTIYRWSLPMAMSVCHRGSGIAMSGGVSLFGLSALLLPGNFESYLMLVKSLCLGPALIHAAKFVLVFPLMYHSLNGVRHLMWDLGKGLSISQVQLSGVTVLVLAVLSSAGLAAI
T1 sequence (Q6PCT8 57-159): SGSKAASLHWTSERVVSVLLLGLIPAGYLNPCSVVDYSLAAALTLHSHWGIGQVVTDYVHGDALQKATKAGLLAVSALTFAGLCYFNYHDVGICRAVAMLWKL
T1 sequence (Q920L2 35-656 partner): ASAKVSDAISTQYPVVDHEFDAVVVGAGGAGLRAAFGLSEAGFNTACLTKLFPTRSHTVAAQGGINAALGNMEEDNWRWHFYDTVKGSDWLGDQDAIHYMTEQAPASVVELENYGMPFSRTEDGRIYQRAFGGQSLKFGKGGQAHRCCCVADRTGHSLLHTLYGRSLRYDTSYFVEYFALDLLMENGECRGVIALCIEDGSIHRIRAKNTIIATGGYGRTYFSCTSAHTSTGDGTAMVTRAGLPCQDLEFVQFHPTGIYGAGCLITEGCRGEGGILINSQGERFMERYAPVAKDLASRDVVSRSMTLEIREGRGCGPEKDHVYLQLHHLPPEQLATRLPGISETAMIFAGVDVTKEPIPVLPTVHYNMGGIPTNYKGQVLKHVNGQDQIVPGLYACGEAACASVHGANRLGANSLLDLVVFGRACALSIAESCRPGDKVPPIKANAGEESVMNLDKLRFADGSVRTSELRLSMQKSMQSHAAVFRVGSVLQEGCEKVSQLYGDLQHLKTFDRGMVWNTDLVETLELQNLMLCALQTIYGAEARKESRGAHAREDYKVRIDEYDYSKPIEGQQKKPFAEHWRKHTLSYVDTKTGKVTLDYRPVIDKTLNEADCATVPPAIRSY
bovine CII, sequence (Q3T189 29-280): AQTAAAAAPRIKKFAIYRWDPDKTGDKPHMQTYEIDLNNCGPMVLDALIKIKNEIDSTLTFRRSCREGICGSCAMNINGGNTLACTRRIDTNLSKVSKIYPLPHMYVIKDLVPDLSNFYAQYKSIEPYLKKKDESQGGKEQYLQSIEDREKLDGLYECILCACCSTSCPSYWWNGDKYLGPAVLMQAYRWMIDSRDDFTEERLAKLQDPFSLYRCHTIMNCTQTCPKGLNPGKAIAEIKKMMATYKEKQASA
bovine CII, sequence (P35720 30-169): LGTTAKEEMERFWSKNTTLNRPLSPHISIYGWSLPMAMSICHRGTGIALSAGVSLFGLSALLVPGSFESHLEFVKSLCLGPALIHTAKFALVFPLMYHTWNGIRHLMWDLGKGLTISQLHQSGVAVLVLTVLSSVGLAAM
bovine CII, sequence (Q95123 56-158): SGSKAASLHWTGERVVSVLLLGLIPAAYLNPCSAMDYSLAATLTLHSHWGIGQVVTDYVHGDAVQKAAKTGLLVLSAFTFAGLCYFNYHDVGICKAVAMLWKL
bovine CII, sequence (P31039 44-665 partner): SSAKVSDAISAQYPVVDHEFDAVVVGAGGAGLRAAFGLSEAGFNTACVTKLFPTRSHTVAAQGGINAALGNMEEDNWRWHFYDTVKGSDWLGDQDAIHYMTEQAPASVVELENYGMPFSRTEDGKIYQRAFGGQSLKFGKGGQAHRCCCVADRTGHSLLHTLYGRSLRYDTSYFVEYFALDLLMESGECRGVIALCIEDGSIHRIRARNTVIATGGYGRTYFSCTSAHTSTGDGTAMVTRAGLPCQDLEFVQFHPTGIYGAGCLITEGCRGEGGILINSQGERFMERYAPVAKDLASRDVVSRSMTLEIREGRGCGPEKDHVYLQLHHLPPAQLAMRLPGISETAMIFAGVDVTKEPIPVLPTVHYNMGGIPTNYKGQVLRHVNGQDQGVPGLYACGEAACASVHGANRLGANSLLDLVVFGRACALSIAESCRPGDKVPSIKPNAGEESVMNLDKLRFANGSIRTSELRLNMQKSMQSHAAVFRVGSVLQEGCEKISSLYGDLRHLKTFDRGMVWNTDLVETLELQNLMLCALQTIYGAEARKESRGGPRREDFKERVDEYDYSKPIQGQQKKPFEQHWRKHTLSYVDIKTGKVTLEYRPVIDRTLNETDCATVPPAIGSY

## CCCCCC(O)c1c(O)nc(OC)c(OC)c1O (racemic) [Compound 18, (rac)-3-(1-hydroxyhexyl)-5,6-dimethoxypyridine-2,4-diol]
[1]
  inhibition of CII at 100 nM concentration: 0%
  CII inhibition activity: no CII inhibition activity
[2]; up to 10 μM
  cytotoxic effect under hypoxia: no cytotoxic effect

## CCCCCC(O)c1cnc(OC)c(OC)c1O (racemic) [Compound 19, (rac)-5-(1-hydroxyhexyl)-2,3-dimethoxypyridin-4-ol]
[1]
  inhibition of CII at 100 nM concentration: 0%
  CII inhibition activity: inactive compound

## COc1[nH]c(=O)c(C(=O)[C@@H](C)C[C@H](C)[C@@H](Cl)CCl)c(O)c1OC [Atpenin A5, atpenin A5]
CII; literature [20, 23]
  IC50: 0.0036 to 0.01 µM
[3]
  Selectivity Ratio (CII:CI): >3030
[3]; read-out: Complex I IC50
  IC50: > 10 µM
[1]
  LLE (Ligand-Lipophilicity Efficiency): 5.36
[1]; [10]
  IC50: 0.0033 µM
[1]; [11]
  IC50: 0.0033 µM
[1]; read-out: Complex II IC50, Table 3
  IC50: 0.0033 µM

## COc1nc(O)c(C(=O)c2ccco2)c(O)c1OC [Compound 16a, (2,4-dihydroxy-5,6-dimethoxypyridin-3-yl)(furan-2-yl)methanone]
[1]
  inhibition of CII at 100 nM concentration: 0%^e
  CII inhibition activity: abrogates CII inhibition activity

## CCCCC(=O)c1c(O)nc(OC)c(OC)c1O [Compound 16b, 1-(2,4-dihydroxy-5,6-dimethoxypyridin-3-yl)pentan-1-one]
Bovine CII
  IC50: 0.096 µM
[1]
  LLE (Ligand-Lipophilicity Efficiency): 5.37
[1]; [10]
  IC50: 0.345 µM
[1]; [11]
  IC50: 0.346 µM

## CCCCCC(=O)c1c(O)nc(OC)c(OC)c1O [Compound 16c, 1-(2,4-dihydroxy-5,6-dimethoxypyridin-3-yl)hexan-1-one]
[4]
  IC50: 18.4 mg/L (≈ 68.3 µM)
3T3 cells
  IC50: 31.8 mg/L (≈ 118 µM)
22Rv1 cells
  ATP production: inhibition of ATP production
  basal respiration: reducing basal respiration
  maximal respiration: reduction of maximal respiration
  oxygen consumption rate: substantially reduced in a dose-dependent manner
LNCaP cells
  effect on Enzalutamide (ENZA) in LNCaP cells: potentiates Enzalutamide
In vivo
  AUC: 0.0196 µg·h/mL
  Vd: 89.5 L/kg
  half-life: 103 min
  Tmax: 22.8 min
In vivo; AUCinf,obs
  AUC(0-inf): 0.0083 µg·h/mL
In vivo; AUCinf,pred
  AUC(0-inf): 0.00832 µg·h/mL
In vivo; female
  AUCinf,obs: 0.02361 µg·h/mL
  AUCinf,pred: 0.02363 µg·h/mL
  t1/2λz: 104 min
  Cmax: 0.14 µg/mL
  Tmax: 15 min
In vivo; female, AUCinf,obs
  AUC(0-inf): 0.036 µg·h/mL
In vivo; female, AUCinf,pred
  AUC(0-inf): 0.036 µg·h/mL
In vivo; male
  Vssobs: 134.64772 L/kg
  Vsspred: 129.16994 L/kg
  t1/2λz: 103 min
  Cmax: 0.0239 µg/mL
  Tmax: 30 min
In vivo; male, AUCinf,obs
  AUC(0-inf): 0.0107 µg·h/mL
In vivo; male, AUCinf,pred
  AUC(0-inf): 0.0106 µg·h/mL
[5]
  LLE (Ligand-Lipophilicity Efficiency): 5.62
[6]
  IC50: 38 mg/L (≈ 141 µM)
[7]
  IC50: 11 mg/L (≈ 40.8 µM)
  22Rv1 IC50: 11 mg/L
  increase in efficacy relative to Enzalutamide, inhibition of cancer growth in vitro: 10 fold
[8]
  IC50: 12 mg/L (≈ 44.6 µM)
HEK293 cells
  selectivity for prostate cancer cells over HEK293: 7.4 fold
  IC50: 81 mg/L (≈ 301 µM)
[3]
  Selectivity Ratio (CII:CI): >156
[1]
  CII IC50 expressed: 0.01723 mg/L
[2]
  cell death: 20%

## COc1nc(O)c(C(=O)CCCCOCc2ccccc2)c(O)c1OC [Compound 16d, 5-(benzyloxy)-1-(2,4-dihydroxy-5,6-dimethoxypyridin-3-yl)pentan-1-one]
[1]
  LLE (Ligand-Lipophilicity Efficiency): 3.41
[1]; [11]
  IC50: 0.281 µM

## COc1nc(O)c(C(=O)CCCCO)c(O)c1OC [Compound 16e, 1-(2,4-dihydroxy-5,6-dimethoxypyridin-3-yl)-5-hydroxypentan-1-one]
[1]
  LLE (Ligand-Lipophilicity Efficiency): 6.90
[1]; [11]
  IC50: 3.73 µM

## CCCCCCC(=O)c1c(O)nc(OC)c(OC)c1O [Compound 16f, 1-(2,4-dihydroxy-5,6-dimethoxypyridin-3-yl)heptan-1-one]
Bovine CII
  IC50: 0.02 µM
[1]
  LLE (Ligand-Lipophilicity Efficiency): 4.57
[1]; [11]
  IC50: 0.282 µM

## CCCCCCCC(=O)c1c(O)nc(OC)c(OC)c1O [Compound 16g, 1-(2,4-dihydroxy-5,6-dimethoxypyridin-3-yl)octan-1-one]
[1]
  LLE (Ligand-Lipophilicity Efficiency): 4.89
[1]; [11]
  IC50: 0.0491 µM

## CCCCCCCCC(=O)c1c(O)nc(OC)c(OC)c1O [Compound 16h, 1-(2,4-dihydroxy-5,6-dimethoxypyridin-3-yl)nonan-1-one]
[1]
  LLE (Ligand-Lipophilicity Efficiency): 4.93
[1]; [11]
  IC50: 0.0157 µM

## CCCCCCCCCCC(=O)c1c(O)nc(OC)c(OC)c1O [Compound 16j, 1-(2,4-dihydroxy-5,6-dimethoxypyridin-3-yl)undecan-1-one]
[1]
  LLE (Ligand-Lipophilicity Efficiency): 4.32
[1]; [10]
  IC50: 0.0086 µM

## CCCCCCCCCCCCC(=O)c1c(O)nc(OC)c(OC)c1O [Compound 16k, 1-(2,4-dihydroxy-5,6-dimethoxypyridin-3-yl)tridecan-1-one]
[4]
  IC50: 10.7 mg/L (≈ 29.1 µM)
[7]
  IC50: 2 mg/L (≈ 5.44 µM)
  22Rv1 IC50: 2 mg/L
  increase in efficacy relative to Enzalutamide, inhibition of cancer growth in vitro: 10 fold
HEK293 cells
  selectivity for prostate cancer cells over HEK293: 17.5 fold
  IC50: 35 mg/L (≈ 95.2 µM)
[3]
  IC50: > 10 µM
  Selectivity Ratio (CII:CI): >3030
[3]; read-out: Complex I IC50
  IC50: > 10 µM
[1]
  LLE (Ligand-Lipophilicity Efficiency): 3.76
  CII IC50 expressed: 0.00121 mg/L

## CCCCCC(O)c1c(OCOC)nc(OC)c(OC)c1OCOC (stereo not shown) [Compound 17, 1-(5,6-dimethoxy-2,4-bis(methoxymethoxy)pyridin-3-yl)hexan-1-ol]
[1]
  inhibition of CII at 100 nM concentration: 0%

## CCCCCC(=O)c1cnc(OC)c(OC)c1O [Compound 20, 1-(4-hydroxy-5,6-dimethoxypyridin-3-yl)hexan-1-one]
[1]
  inhibition of CII at 100 nM concentration: 0%
  CII inhibition activity: no activity at 100 nM concentration

## CCCCCC(OC)c1cnc(OC)c(OC)c1O (stereo not shown) [Compound 24, 2,3-dimethoxy-5-(1-methoxyhexyl)pyridin-4-ol]
[8]
  IC50: > 30 mg/L
[8]; up to 30 μg/mL
  growth inhibition of DU-145 cells: no growth inhibition effect
[1]
  inhibition of CII at 100 nM concentration: 0%
  CII inhibition activity: no activity to inhibit CII at 100 nM

## CC1=NS(=O)(=O)c2cc(Cl)ccc2N1 [Diazoxide, diazoxide, reference compound]
CII; literature
  IC50: 32 µM
[1]
  LLE (Ligand-Lipophilicity Efficiency): 1.85

## COc1cc([C@@H]2c3cc4c(cc3[C@@H](O[C@@H]3O[C@@H]5CO[C@@H](C)O[C@H]5[C@H](O)[C@H]3O)[C@H]3COC(=O)[C@H]23)OCO4)cc(OC)c1O [Etoposide, etoposide, reference compound]
[2]
  cell death: 7%

## O=C(O)CC(=O)O [Malonate]
CII; literature
  IC50: 40 µM

## CCCCC(=O)c1c(O)nc(OC)c(OC)c1O [SDH1]
[9]
  value at 100 nM (Control 100%): 65.17%
  value at 1 uM (Control 100%): 35.13%

## COc1nc(O)c(C(=O)CCCC[P+](c2ccccc2)(c2ccccc2)c2ccccc2)c(O)c1OC [SDH2]
[9]
  value at 100 nM (Control 100%): 61.64%
  value at 1 uM (Control 100%): 43.53%

## O=C(CC(=O)C(F)(F)F)c1cccs1 [TFFA, Thenoyltrifluoroacetone]
CII; literature
  IC50: 30 µM

## Cc1c(C)c2c(c(C)c1OC(=O)CCC(=O)O)CC[C@@](C)(CCC[C@H](C)CCC[C@H](C)CCCC(C)C)O2 [α-TOS, α-Tocopheryl succinate]
CII; literature
  IC50: 42 µM
